Data from PubChem BioAssay (NCI).
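Interpolation was linear, between the two tested concentrations surrounding the appropriate level; five concentrations were tested over 48 hours in 96-well plates. Abbreviation: GI50, concentration required for 50% inhibition of growth. TGI marks complete inhibition of growth.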

What was measured:
Assay in all cases: inhibition of tumour cell growth, NCI panel, 48 h
SF-268 CNS = tested on: SF-268 CNS
SNB-19 CNS = tested on: SNB-19 CNS
NCI-H460 lung = tested on: NCI-H460 lung
HCC-2998 colon = tested on: HCC-2998 colon
SNB-75 CNS = tested on: SNB-75 CNS
HT29 colon = tested on: HT29 colon
NCI-H23 lung = tested on: NCI-H23 lung
SK-MEL-5 melanoma = tested on: SK-MEL-5 melanoma
SK-OV-3 ovarian = tested on: SK-OV-3 ovarian
CCRF-CEM leukemia = tested on: CCRF-CEM leukemia

For Clc1ccc2c(Cl)nc(-c3ccccc3)nc2c1, the TGI (SF-268 CNS) was greater than 100 µM, the TGI (SNB-19 CNS) was greater than 100 µM and the TGI (NCI-H460 lung) was greater than 100 µM. The TGI (HCC-2998 colon) was greater than 100 µM, the TGI (SNB-75 CNS) was greater than 100 µM and the TGI (HT29 colon) was greater than 100 µM. For the same compound, the TGI (NCI-H23 lung) was 35.9 µM, the TGI (SK-MEL-5 melanoma) was 82.4 µM and the TGI (SK-OV-3 ovarian) was 62.3 µM. For the same compound, the TGI (CCRF-CEM leukemia) was greater than 100 µM.

c1ccc(C2=NN[C@H](c3cn(-c4ccccc4)nc3-c3ccccc3)C2)cc1 was tested, and the GI50 (SF-268 CNS) was 5.98 µM, the TGI (SF-268 CNS) was greater than 100 µM and the GI50 (SNB-19 CNS) was 5.05 µM. The TGI (SNB-19 CNS) was greater than 100 µM, the GI50 (NCI-H460 lung) was 4.26 µM and the TGI (NCI-H460 lung) was greater than 100 µM. For the same compound, the GI50 (HCC-2998 colon) was greater than 100 µM, the TGI (HCC-2998 colon) was greater than 100 µM and the GI50 (SNB-75 CNS) was 2.05 µM. The TGI (SNB-75 CNS) was 4.19 µM, the GI50 (HT29 colon) was greater than 100 µM and the TGI (HT29 colon) was greater than 100 µM. The GI50 (NCI-H23 lung) was 7.21 µM, the TGI (NCI-H23 lung) was greater than 100 µM and the GI50 (SK-MEL-5 melanoma) was 7.66 µM. For the same compound, the TGI (SK-MEL-5 melanoma) was greater than 100 µM, the GI50 (SK-OV-3 ovarian) was 2.04 µM and the TGI (SK-OV-3 ovarian) was 4.52 µM. For the same compound, the GI50 (CCRF-CEM leukemia) was greater than 100 µM and the TGI (CCRF-CEM leukemia) was greater than 100 µM.

With Cc1n(CC(C)C)c2c([n+]1CC(=O)c1ccc([N+](=O)[O-])cc1)C(=O)c1ccccc1C2=O the TGI (SF-268 CNS) was less than 0.0391 µM, the TGI (SNB-19 CNS) was 0.104 µM and the TGI (NCI-H460 lung) was 1.38 µM. It also gave a TGI (HCC-2998 colon) of 1.18 µM, a TGI (SNB-75 CNS) of 0.641 µM and a TGI (HT29 colon) of 0.55 µM. For the same compound, the TGI (NCI-H23 lung) was less than 0.0142 µM, the TGI (SK-MEL-5 melanoma) was less than 0.0309 µM and the TGI (SK-OV-3 ovarian) was 0.869 µM. The TGI (CCRF-CEM leukemia) was 4.94 µM.
